Measurements as given in patent publication US12454559B2, “Activating mitotic checkpoint control mechanisms” (The Regents of the University of Michigan, priority 2015, dated 2025).

How the values were obtained:
ipl1-as6 = assay: Spindle localization of Sli15-GFP in pre-anaphase cells expressing ipl1-as6; format: cell-based, budding yeast; settings: 50 μM
Method: (§1) The ATP analogues 1-NMPP1 and 1-NAPP1 (final concentration 50 μM) were used to block the activity of mps1-as1 and ipl1-as6, respectively. Cells were first synchronized in S-phase using 100 mM hydroxyl urea (HU) for 2.5 h, washed with YPD, and then released into media containing the appropriate inhibitor for 15 min. This was followed by the addition of rapamycin to the media to anchor Mps1-Frb at Mtw1-C. The bud size was used to monitor cell-cycle progress.
To study the effect of 1-NAPP1 on ipl1-as6 activity, the spindle localization of Sli15-GFP was measured in pre-anaphase cells67. The bud size was used to find pre-anaphase cells. If the bud was smaller than 50% in size as compared with the mother cell, and contained a short bar of Sli15-GFP located within the mother cell and at the bud neck, then the cell was deemed to be in pre-anaphase.

yeast cells = assay: Yeast cell-cycle progression (large-budded / metaphase-arrested cells) after rapamycin-induced anchoring; format: cell-based, budding yeast
Method: Stock solution (1 mg ml^−1) of rapamycin in DMSO was diluted ×1,000 to achieve 1 μg ml^−1 final concentration in all experiments involving rapamycin-induced dimerization.
as §1
Anaphase cells in cycling cultures will also be scored as large-budded cells by this criterion. In strains carrying fluorescent markers, the separation of the kinetochore clusters or spindle pole bodies was used to determine whether or not the cells arrested in mitosis. Large-budded cells with kinetochore-cluster separation smaller than 1 μm or spindle length smaller than 2 μm were scored as metaphase-arrested cells (ref. 68; herein incorporated by reference in its entirety).

HeLa cells = assay: Duration of mitosis / mitotic arrest by time-lapse imaging of HeLa cells expressing rapamycin-dimerizable Mps1 and KNL1 phosphodomain (eSAC); format: cell-based, human
Text: As described elsewhere herein, a kinetochore-independent SAC activator was engineered which comprises a region of KNL1 that contains a series of Mps1 phosphorylation sites, known as “MELT repeats”, which are necessary for SAC activation, but lacks the kinetochore-localization domain at the C-terminus or the newly identified transient localization domain at its N-terminus (FIG. 21). FKBP12 was fused to this minimal KNL1 phosphodomain and FRB to Mps1, and rapamycin was used to induce dimerization of the fusion proteins in HeLa cells (FIGS. 17B, 22). […] These cells maintained an aligned metaphase plate indicating an inability to initiate anaphase and that the observed mitotic arrest was not due to the disruption of kinetochore-microtubule interactions. […] To further ensure kinetochore-independent operation of the dimerized proteins, the kinetochore-localization domain of Mps1 was removed (FIG. 17E). […] Furthermore, individually inhibiting the kinase activity of exogenous Mps1 using an analog-sensitive version of the kinase domain or preventing the phosphorylation of the minimal KNL1 phosphodomain by using a non-phosphorylatable version of the phosphodomain each prevented the rapamycin-induced mitotic arrest (FIG. 23). Thus, the catalytic activity of the Mps1 kinase domain and the Mps1 phosphorylation sites within the minimal phosphodomain are both essential for the rapamycin-induced metaphase arrest. […] The above described system of FKBP12/FRB-dimerizable Mps1 kinase domain and KNL1 phosophodomains is referred to in this example as an ectopic SAC activation system (eSAC).
MELT repeats in the eSAC phosphodomain were phosphorylated only in the presence of rapamycin, and were not phosphorylated if the SAC was activated by creating unattached kinetochores by treatment with the microtubule depolymerizing drug nocodazole (FIG. 18A). Reciprocally, the MELT repeats in endogenous KNL1 were not appreciably phosphorylated in rapamycin-treated cells, but were strongly phosphorylated in nocodazole-treated cells. […]

With CC(C)(C)n1nc(-c2cccc3ccccc23)c2c(N)ncnc21 [1-NAPP1] the “Inhibition of ipl1-as6 (Sli15-GFP spindle localization)” value (ipl1-as6) was “inhibits ipl1-as6” and the “Effect on SAC activation induced by Mps1 anchored at Mtw1-C” value (yeast cells; S-phase synchronized ipl1-as6 cells released into 1-NAPP1 and rapamycin) was “did not have any effect on SAC activation”.

CC(C)(C)n1nc(Cc2cccc3ccccc23)c2c(N)ncnc21 [1NM-PP1] was tested, and the “Effect on eSAC-induced arrest” value (HeLa cells; 10 μM with Rapamycin, analog-sensitive Mps1S602A kinase domain with minimal phosphodomain) was “abrogated the eSAC-induced arrest” and the “Effect on SAC activation by Mps1-Frb anchored at the kinetochore” value (yeast cells; heterozygous diploids expressing mps1-as1 and Mps1-Frb, 1-NMPP1 15 min, then rapamycin) was “does not affect SAC activation”.

In the case of c1nc2nc(Nc3ccc(N4CCOCC4)cc3)nc(NC3CCCCC3)c2[nH]1 [Reversine], the “Effect on rapamycin-induced mitotic arrest (time until anaphase entry)” value (HeLa cells; HeLa cells in rapamycin-induced arrest, KNL1 phosphodomain-Mps1 dimerization) is reported as “reversed rapidly” and the “Effect on SAC and cell division (duration of mitosis)” value (HeLa cells; HeLa cells, Reversine-treated vs untreated, no rapamycin) is reported as “inactivates the SAC and significantly accelerates cell division”.

B1: Spc105120: 329: minimal, anchorable phosphodomain comprising residues 120-329 of Spc105, contains all 6 MELT motifs (protein)
chain: LVTSTQIDDARTEEKTAAEEDPDTSGMELTEPIVATSDSNKASQHDPTSMEMTEVFPRSIRQKNPDVEGESIESSQQIDDVEAVREETMELTAIHNVHDYDSISEDTVEGEPIDLTEYESKPYVPNSVSRSTGKSSDYSVERSNDKSDLSKSENKTNSSQPMEITDIFHADPQNPMGLHSDNNINDDGNEMELTQIQTNFDRDNHHIDES
modifications: left off: small tags and cut ends
notes: minimal, anchorable phosphodomain comprising residues 120-329 of Spc105, contains all 6 MELT motifs
B1 was tested, and the “Cell-cycle arrest / SAC activation when anchored to Mps1” value (yeast cells; anchored to Mps1-Fkbp12 with rapamycin, asynchronously dividing cells) was “arrested in metaphase”.
